Assays:
[1] = tested on: HCV Replicon 1b; assay: HCV inhibition assay, HCV replicon 1b (Clone A or ET-lunet cells; RT-PCR or luciferase reporter); assay type: cell-based; conditions: Hepatitis C virus, 96 h, HCV replicon 1b; 4 days incubation; read-out: Replicon 1b potency EC90
Summary of the method: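 Inhibition read either as luciferase signal (ET replicon) or as HCV 5′-NTR RNA by RT-PCR relative to rRNA, % = (1−2^−ΔΔCt)×100, against DMSO controls, giving EC50 and EC90. Cells: Clone A or ET-lunet, seeded 1500 or 3000/well, exposed 4 days at 37 °C, 5% CO2, 0.5% DMSO.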

[2] = Cell cytotoxicity assay (MTS), CC90 as reported in Table 1, cell line not stated; assay type: cell-based; conditions: human; MTS assay; 8 days incubation; cell line not given
Summary of the method: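 MTS read-out (490 nm, 2 h dye step) after 8-day exposure at 37° C. Huh7, HepG2, BxPC3 were seeded at 2×10^3 and CEM at 5×10^3 cells/well, with compound serially diluted from 100 μM. CC90 comes from comparison with untreated control wells.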

## CC(C)C[C@H]1CCN(C(=O)c2cc(-c3ccc(F)cc3)on2)[C@@H](CC(C)C)C(=O)N1 [Compound 411, (3S,7S)-4-(5-(4-fluorophenyl)isoxazole-3-carbonyl)-3,7-diisobutyl-1,4-diazepan-2-one]
[1]
  EC90: > 10 µM
[2]
  CC90 at 8 days: > 10 µM

## CC(C)CC1CNC(=O)[C@H](CC(C)C)N(C(=O)c2cc(-c3ccc(F)cc3)on2)C1 (stereo partly drawn) [Compound 413, (3S)-4-(5-(4-fluorophenyl)isoxazole-3-carbonyl)-3,6-diisobutyl-1,4-diazepan-2-one]
[1]
  EC90: > 10 µM
[2]
  CC90 at 8 days: > 10 µM

## CC(C)C[C@H]1C(=O)N[C@H](c2ccccc2)CCN1C(=O)c1cc(-c2ccc(F)cc2)on1 [Compound 415, (3S,7S)-4-(5-(4-fluorophenyl)isoxazole-3-carbonyl)-3-isobutyl-7-phenyl-1,4-diazepan-2-one]
[1]
  EC90: > 10 µM
[2]
  CC90 at 8 days: > 10 µM

## CC(C)C[C@H]1C(=O)N[C@H](c2ccccc2)CCN1C(=O)[C@@H]1C[C@H]1c1ccccc1 [Compound 417, (3S,75)-3-isobutyl-7-phenyl-4-((1R,2R)-2-phenylcyclopropanecarbonyl)-1,4-diazepan-2-one]
[1]
  EC90: 7.77 µM
[2]
  CC90 at 8 days: > 10 µM

## CC(C)C[C@H]1C(=O)NC[C@H](c2ccccc2)CN1C(=O)[C@@H]1C[C@H]1c1ccccc1 [Compound 418, (3S,6S)-3-isobutyl-6-phenyl-4-((1R,2R)-2-phenylcyclopropanecarbonyl)-1,4-diazepan-2-one]
[1]
  EC90: > 10 µM
[2]
  CC90 at 8 days: > 10 µM

## CC(C)C[C@H]1C(=O)NC[C@H](c2ccccc2)CN1C(=O)c1cc(-c2ccc(F)cc2)on1 [Compound 420, (3S,6S)-3-isobutyl-6-phenyl-4-(5-(4-fluorophenyl)isoxazole-3-carbonyl)-1,4-diazepan-2-one]
[1]
  EC90: > 10 µM
[2]
  CC90 at 8 days: > 10 µM

## CC(C)C[C@H]1CN(C(=O)[C@H]2C[C@@H]2c2ccc(F)cc2F)[C@@H](CC(C)C)C(=O)N1 [Compound 421, (3S,6S)-4-[(1S,2S)-2-(2,4-Difluoro-phenyl)-cyclopropanecarbonyl]-3,6-diisobutyl-piperazin-2-one]
[1]
  EC90: > 10 µM
[2]
  CC90 at 8 days: > 10 µM

## C/C=C/[C@H]1CN(C(=O)[C@@H]2C[C@H]2c2ccccc2)[C@@H](CC(C)C)C(=O)N1 [Compound 422, (3S,6S)-3-isobutyl-4-((1R,2R)-2-phenylcyclopropanecarbonyl)-6-((E)-prop-1-en-1-yl)piperazin-2-one]
[1]
  EC90: 2.1 µM
[2]
  CC90 at 8 days: > 10 µM

## CC(C)C[C@H]1C(=O)N[C@H](c2cccs2)CN1C(=O)c1cc(-c2ccc(F)cc2)on1 [Compound 428, (3S,6S)-4-(5-(4-fluorophenyl)isoxazole-3-carbonyl)-3-isobutyl-6-(thiophen-2-yl)piperazin-2-one]
[1]
  EC90: > 10 µM
[2]
  CC90 at 8 days: > 10 µM

## CC(C)C[C@H]1C(=O)N[C@@H](c2cccs2)CN1C(=O)c1nc(-c2ccc(F)cc2)no1 [Compound 431, (3S,6R)-4-(3-(4-fluorophenyl)-1,2,4-oxadiazole-5-carbonyl)-3-isobutyl-6-(thiophen-2-yl)piperazin-2-one]
[1]
  EC90: 0.024 µM
[2]
  CC90 at 8 days: > 10 µM

## CC(C)C[C@H]1C(=O)N[C@@H](c2cccs2)CN1C(=O)/C=C/c1ccc(F)cc1F [Compound 434, (3S,6R)-4-((E)-3-(2,4-difluorophenyl)acryloyl)-3-isobutyl-6-(thiophen-2-yl)pipera-zin-2-one]
[1]
  EC90: 0.048 µM
[2]
  CC90 at 8 days: > 10 µM

## CC(C)C[C@H]1C(=O)N[C@@H](c2cccs2)CN1Cc1cc(-c2ccc(F)cc2)on1 [Compound 435, (3S,6R)-4-((5-(4-fluorophenyl)isoxazol-3-yl)methyl)-3-isobutyl-6-(thiophen-2-yl)piperazin-2-one]
[1]
  EC90: 0.26 µM
[2]
  CC90 at 8 days: > 10 µM

## Cc1ccsc1[C@H]1CN(C(=O)[C@@H]2C[C@H]2c2ccc(F)cc2)[C@@H](CC(C)C)C(=O)N1 [Compound 438, (3S,6R)-4-((1R,2R)-2-(4-fluorophenyl)cyclopropanecarbonyl)-3-isobutyl-6-(3-methylthiophen-2-yl)piperazin-2-one]
[1]
  EC90: > 10 µM
[2]
  CC90 at 8 days: > 10 µM

## Cc1ccsc1[C@H]1CN(C(=O)c2noc(-c3ccc(F)cc3)n2)[C@@H](CC(C)C)C(=O)N1 [Compound 441, (3S,6R)-4-(5-(4-fluorophenyl)-1,2,4-oxadiazole-3-carbonyl)-3-isobutyl-6-(3-methylthiophen-2-yl)piperazin-2-one]
[1]
  EC90: > 10 µM
[2]
  CC90 at 8 days: > 10 µM

## CC(C)C[C@H]1C(=O)N[C@@H](C2CCC2)CN1C(=O)c1cc(-c2ccc(F)cc2)on1 [Compound 443, (3S,6S)-6-cyclobutyl-4-(5-(4-fluorophenyl)isoxazole-3-carbonyl)-3-isobutylpiperazin-2-one]
[1]
  EC90: 0.74 µM
[2]
  CC90 at 8 days: > 10 µM

## C/C=C/[C@H]1CN(C(=O)c2cc(-c3ccc(F)cc3)no2)[C@@H](CC(C)C)C(=O)N1 [Compound 447, (3S,6S)-4-(3-(4-fluorophenyl)isoxazole-5-carbonyl)-3-isobutyl-6-((E)-prop-1-en-1-yl)piperazin-2-one]
[1]
  EC90: 0.14 µM
[2]
  CC90 at 8 days: > 10 µM

## C/C=C/[C@H]1CN(C(=O)c2noc(-c3ccc(F)cc3)n2)[C@@H](CC(C)C)C(=O)N1 [Compound 448, (3S,6S)-4-(5-(4-fluorophenyl)-1,2,4-oxadiazole-3-carbonyl)-3-isobutyl-6-((E)-prop-1-en-1-yl)piperazin-2-one]
[1]
  EC90: 0.11 µM
[2]
  CC90 at 8 days: > 10 µM

## C/C=C/[C@H]1CN(C(=O)/C=C/c2ccc(F)cc2F)[C@@H](CC(C)C)C(=O)N1 [Compound 449, (3S,6S)-4-((E)-3-(2,4-difluorophenyl)acryloyl)-3-isobutyl-6-((E)-prop-1-en-1-yl)piperazin-2-one]
[1]
  EC90: 1.19 µM
[2]
  CC90 at 8 days: > 10 µM

## CC(C)C[C@H]1C(=O)N[C@@H](c2ccsc2)CN1C(=O)c1cc(-c2ccc(F)cc2)no1 [Compound 450, (3S,6S)-4-(3-(4-fluorophenyl)isoxazole-5-carbonyl)-3-isobutyl-6-(thiophen-3-yl)piperazin-2-one]
[1]
  EC90: 0.059 µM
[2]
  CC90 at 8 days: > 10 µM

## CC(C)C[C@H]1C(=O)N[C@@H](c2ccsc2)CN1C(=O)/C=C/c1ccc(F)cc1F [Compound 451, (3S,6S)-4-((E)-3-(2,4-difluorophenyl)acryloyl)-3-isobutyl-6-(thiophen-3-yl)piperazin-2-one]
[1]
  EC90: 0.125 µM
[2]
  CC90 at 8 days: > 10 µM

## C/C=C/[C@H]1CN(C(=O)[C@@H]2C[C@H]2c2ccc(F)cc2)[C@@H](CC(C)C)C(=O)N1 [Compound 452, (3S,6S)-4-((1R,2R)-2-(4-fluorophenyl)cyclopropanecarbonyl)-3-isobutyl-6-((E)-prop-1-en-1-yl)piperazin-2-one]
[1]
  EC90: 0.048 µM
[2]
  CC90 at 8 days: > 10 µM

## Cc1ccc([C@H]2CN(C(=O)c3cc(-c4ccc(F)cc4)on3)[C@@H](CC(C)C)C(=O)N2)s1 [Compound 453, (3S,6R)-4-(5-(4-fluorophenyl)isoxazole-3-carbonyl)-3-isobutyl-6-(5-methylthiophen-2-yl)piperazin-2-one]
[1]
  EC90: 0.68 µM
[2]
  CC90 at 8 days: > 10 µM

## CC(C)C[C@H]1C(=O)NC(C2CCOCC2)CN1C(=O)c1cc(-c2ccc(F)cc2)on1 (stereo partly drawn) [Compound 456, (3S)-4-(5-(4-fluorophenyl)isoxazole-3-carbonyl)-3-isobutyl-6-(tetrahydro-2H-pyran-4-yl)piperazin-2-one]
[1]
  EC90: 0.194 µM
[2]
  CC90 at 8 days: > 10 µM

## CSC[C@H]1C(=O)N[C@@H](c2ccccc2)CN1C(=O)[C@@H]1C[C@H]1c1ccc(F)cc1 [Compound 460, (3R,6S)-4-((1R,2R)-2-(4-fluorophenyl)cyclopropanecarbonyl)-3-((methylthio)-methyl)-6-phenylpiperazin-2-one]
[1]
  EC90: 1.16 µM
[2]
  CC90 at 8 days: > 10 µM

## C=CC[C@H]1C(=O)N[C@@H](c2ccccc2)CN1C(=O)[C@@H]1C[C@H]1c1ccc(F)cc1 [Compound 462, (3S,6S)-3-allyl-4-((1R,2R)-2-(4-fluorophenyl)cyclopropanecarbonyl)-6-phenyl-piperazin-2-one]
[1]
  EC90: 1.52 µM
[2]
  CC90 at 8 days: > 10 µM

## CC(C)C[C@H]1C(=O)N[C@@H](C2CCC2)CN1C(=O)[C@@H]1C[C@H]1c1ccc(F)cc1 [Compound 464, (3S,6S)-6-cyclobutyl-4-((1R,2R)-2-(4-fluorophenyl)cyclopropanecarbonyl)-3-isobutylpiperazin-2-one]
[1]
  EC90: 0.83 µM
[2]
  CC90 at 8 days: > 10 µM

## C=CC[C@H]1C(=O)N[C@@H](c2ccccc2)CN1C(=O)c1noc(-c2ccc(F)cc2)n1 [Compound 465, (3S,6S)-3-allyl-4-(5-(4-fluorophenyl)-1,2,4-oxadiazole-3-carbonyl)-6-phenyl-piperazin-2-one]
[1]
  EC90: 0.29 µM
[2]
  CC90 at 8 days: > 10 µM

## CSC[C@H]1C(=O)N[C@@H](c2ccccc2)CN1C(=O)c1noc(-c2ccc(F)cc2)n1 [Compound 466, (3R,6S)-4-(5-(4-fluorophenyl)-1,2,4-oxadiazole-3-carbonyl)-3-((methylthio)methyl)-6-phenylpiperazin-2-one]
[1]
  EC90: 0.65 µM
[2]
  CC90 at 8 days: > 10 µM

## CC(C)C[C@H]1C(=O)N[C@@H](C2CCC2)CN1C(=O)c1noc(-c2ccc(F)cc2)n1 [Compound 467, (3S,6S)-6-cyclobutyl-4-(5-(4-fluorophenyl)-1,2,4-oxadiazole-3-carbonyl)-3-isobutylpiperazin-2-one]
[1]
  EC90: 0.25 µM
[2]
  CC90 at 8 days: > 10 µM

## CSC[C@H]1C(=O)N[C@@H](c2ccccc2)CN1C(=O)c1cc(-c2ccc(F)cc2)on1 [Compound 468, (3R,6S)-4-(5-(4-fluorophenyl)isoxazole-3-carbonyl)-3-((methylthio)methyl)-6-phenylpiperazin-2-one]
[1]
  EC90: 0.69 µM
[2]
  CC90 at 8 days: > 10 µM
